Data reported in ChEMBL document CHEMBL3352370, “Substrate derived peptidic α-ketoamides as inhibitors of the malarial protease PfSUB1” (Bioorg Med Chem Lett, 2014).
pIC50, pKi: −log10 of the molar value. Numbered stars: 1 amine (or outer) side, 2 acyl side, 3 side chain; on linkers, the order of the positions; unused ones are H or OH. Square brackets hold non-standard residues; d marks the D form. Peptide text beside a SMILES is read from it. ξ: configuration not given here. ξ3Amino2oxobutanoyl = CC(N[*:1])C(=O)C(=O)[*:2]; GABA = NCCCC(=O)O; βAla = NCCC(=O)O

The compounds below were run against T1, Subtilisin-like protease 1 (Plasmodium falciparum, UniProt O61142) (assay: Inhibition of Plasmodium falciparum SUB1).
T1 sequence (O61142 whole entry): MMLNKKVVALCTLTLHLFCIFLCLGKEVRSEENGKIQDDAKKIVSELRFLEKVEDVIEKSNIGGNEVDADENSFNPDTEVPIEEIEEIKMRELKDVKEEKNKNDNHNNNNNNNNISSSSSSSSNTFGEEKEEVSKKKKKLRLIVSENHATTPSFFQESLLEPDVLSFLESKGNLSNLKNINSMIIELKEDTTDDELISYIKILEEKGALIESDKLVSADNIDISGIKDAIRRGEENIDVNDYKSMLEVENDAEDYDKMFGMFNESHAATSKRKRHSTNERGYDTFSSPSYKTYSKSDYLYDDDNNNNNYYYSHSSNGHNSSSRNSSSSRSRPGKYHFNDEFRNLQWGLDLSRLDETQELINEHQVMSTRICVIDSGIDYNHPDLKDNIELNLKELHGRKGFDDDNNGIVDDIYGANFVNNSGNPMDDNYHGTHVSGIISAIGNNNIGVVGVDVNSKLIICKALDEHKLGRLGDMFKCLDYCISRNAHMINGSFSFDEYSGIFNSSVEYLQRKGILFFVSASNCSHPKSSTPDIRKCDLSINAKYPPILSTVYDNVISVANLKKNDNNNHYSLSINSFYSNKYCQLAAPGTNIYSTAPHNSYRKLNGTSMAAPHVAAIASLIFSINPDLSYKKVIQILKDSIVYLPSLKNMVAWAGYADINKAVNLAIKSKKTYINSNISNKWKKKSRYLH

| Compound | pKi | pIC50 |
| --- | --- | --- |
| O=C(Nc1ccc(-c2nc3cc(NC(=O)c4ccccc4)ccc3[nH]2)cc1)c1ccccc1 | 5.10 | – |
| CC[C@H](C)[C@H](NC(C)=O)C(=O)N[C@H](C(=O)NC(C)(C)C(=O)NC(C)C(=O)C(=O)NCCC(=O)O)[C@@H](C)O (stereo partly drawn) | – | < 4.30 |
| CC[C@H](C)[C@H](NC(C)=O)C(=O)N[C@H](C(=O)NC1(C(=O)NC(C)C(=O)C(=O)NCCC(=O)O)CC1)[C@@H](C)O (stereo partly drawn) | – | < 4.30 |
| CC[C@H](C)[C@H](NC(C)=O)C(=O)N[C@H](C(=O)NCC(=O)NC(C)C(=O)C(=O)NCCC(=O)O)[C@@H](C)O (stereo partly drawn) | – | 6.05 |
| CC[C@H](C)[C@H](NC(C)=O)C(=O)N[C@@H](C)C(=O)N[C@@H](C)C(=O)NC(C)C(=O)C(=O)NCCC(=O)O (stereo partly drawn) | – | 4.52 |
| CC[C@H](C)[C@H](NC(C)=O)C(=O)N[C@H](C(=O)N[C@@H](C)C(=O)NC(Cc1ccccc1)C(=O)C(=O)NCCC(=O)O)[C@@H](C)O (stereo partly drawn) | – | 4.00 |
| CC[C@H](C)[C@H](NC(C)=O)C(=O)N[C@H](C(=O)N[C@@H](C)C(=O)NC(C(=O)C(=O)NCCC(=O)O)C(C)C)[C@@H](C)O (stereo partly drawn) | – | 4.70 |
| CC[C@H](C)[C@H](NC(C)=O)C(=O)N[C@H](C(=O)N[C@@H](C)C(=O)NC(CCC(=O)N(C)C)C(=O)C(=O)NCCC(=O)O)[C@@H](C)O (stereo partly drawn) | – | < 4.30 |
| CC[C@H](C)[C@H](NC(C)=O)C(=O)N[C@H](C(=O)NCC(=O)NC(C(=O)C(=O)NCCC(=O)O)C(C)C)[C@@H](C)O (stereo partly drawn) | – | 5.35 |
| CC[C@@H](C)[C@H](NC(=O)[C@H](CCCCN)NC(C)=O)C(=O)N[C@H](C(=O)N[C@@H](C)C(=O)NC(CCC(N)=O)C(=O)C(=O)NCCC(=O)O)[C@@H](C)O (stereo partly drawn) | – | 5.15 |
| CC[C@H](C)[C@H](NC(=O)[C@H](CCCCN)NC(C)=O)C(=O)N[C@H](C(=O)N[C@@H](C)C(=O)NC(C)C(=O)C(=O)NCC(=O)O)[C@@H](C)O (stereo partly drawn) (Ac-KITA[ξ3Amino2oxobutanoyl]G-OH) | – | 5.00 |
| CC[C@H](C)[C@H](NC(=O)[C@H](CCCCN)NC(C)=O)C(=O)N[C@H](C(=O)N[C@@H](C)C(=O)NC(C)C(=O)C(=O)NCCCC(=O)O)[C@@H](C)O (stereo partly drawn) (Ac-KITA[ξ3Amino2oxobutanoyl][GABA]-OH) | – | 5.51 |
| CC[C@H](C)[C@H](NC(=O)[C@H](CCCCN)NC(C)=O)C(=O)N[C@H](C(=O)N[C@@H](C)C(=O)NC(C)C(=O)C(=O)NCCC(N)=O)[C@@H](C)O (stereo partly drawn) (Ac-KITA[ξ3Amino2oxobutanoyl][βAla]-NH2) | – | 4.42 |
| CC[C@H](C)[C@H](NC(=O)[C@H](CCCCN)NC(C)=O)C(=O)N[C@H](C(=O)N[C@@H](C)C(=O)NC(C)C(=O)C(=O)NCCC(=O)O)[C@@H](C)O (stereo partly drawn) (Ac-KITA[ξ3Amino2oxobutanoyl][βAla]-OH) | – | 6.00 |

Continued, values first:

| pKi | pIC50 | Compound |
| --- | --- | --- |
| – | 6.52 | Oc1ccc(C2Oc3c(c(O)cc4c3C3c5c(O)cc(O)c(O)c5OC(c5ccc(O)c(O)c5)(O4)C3O)CC2O)cc1O (stereo not drawn) |
| – | 4.74 | O=C(CCCCCNC(=O)CCCC[C@@H]1SC[C@@H]2NC(=O)N[C@@H]21)NCCCCCC(=O)Nc1ccc2c(Cl)c(OCCc3ccccc3)oc(=O)c2c1 |
| 5.22 | – | COc1ccc(Nc2cc(C)c3cc(NC(=O)c4cc5ccccc5[nH]4)ccc3n2)cc1 |
| – | 5.60 | CC[C@H](C)[C@H](NC(C)=O)C(=O)N[C@H](C(=O)N[C@@H](C)C(=O)NC(C)C(=O)C(=O)NCCC(=O)O)[C@@H](C)O (stereo partly drawn) |
| – | < 4.30 | CC(=O)N[C@@H](C)C(=O)N[C@H](C(=O)NCC(=O)NC(C)C(=O)C(=O)NCCC(=O)O)[C@@H](C)O (stereo partly drawn) |
| – | < 4.30 | CC[C@H](C)[C@H](NC(C)=O)C(=O)N[C@H](C(=O)N[C@@H](C)C(=O)NC(C(=O)C(=O)NCCC(=O)O)c1ccccc1)[C@@H](C)O (stereo partly drawn) |
| – | 5.30 | CC[C@H](C)[C@H](NC(C)=O)C(=O)N[C@H](C(=O)N[C@@H](C)C(=O)NC(CCC(=O)O)C(=O)C(=O)NCCC(=O)O)[C@@H](C)O (stereo partly drawn) |
| – | < 4.30 | CC[C@H](C)[C@H](NC(C)=O)C(=O)N[C@H](C(=O)N[C@@H](C)C(=O)NC(C[C@@H]1CCNC1=O)C(=O)C(=O)NCCC(=O)O)[C@@H](C)O (stereo partly drawn) |
| – | 5.92 | CCC(NC(=O)CNC(=O)[C@@H](NC(=O)[C@@H](NC(C)=O)[C@@H](C)CC)[C@@H](C)O)C(=O)C(=O)NCCC(=O)O (stereo partly drawn) |
